# Legend:
# [1] = test system: Sporothrix schenkii B62482; assay: Antifungal activity in vitro (resazurin susceptibility screen), Inf. A; assay type: cell-based; settings: 27 °C, 4 days, resa time 24 hours; for pIC50 Inf. A: Sporothrix schenkii B62482; for IC50: Sporothrix, B62482, Sporothrix schenkii B62482
# Protocol: (§1) The standard susceptibility screen was performed in 96-well plates (U-bottom, Greiner Bio-One). Serial dilutions (2-fold or 4-fold) of 20 mM compound stock solutions were made in 100% DMSO, followed by an intermediate dilution step in water. These serial dilutions (10 μl) were then spotted onto test-plates that could be stored in the dark at 4° C. for a maximum period of 2 weeks. An adequate broad dose-range was included with 64 μM as the highest in-test concentration. The culture medium RPMI-1640 was supplemented with L-glutamine, 2% glucose and buffered with 3-(N-morpholino)-propanesulfonic acid (MOPS) at pH 7.0±0.1. The different fungal species/isolates (Table 3a) were cryopreserved and 1/1000 diluted in medium just prior to use. A standard inoculum of 200 μl containing 10^3 colony-forming unit (cfu) was then added to each well. A positive control (100% growth=fungal culture without antifungal) and a negative control (0% growth=RPMI-MOPS medium) were included on each plate. Optimal incubation time and temperature were dependent on the fungal species and vary from 24 h for yeasts (37° C.) to one week or more for dermatophytes (27° C.). Inhibition of fungal growth was measured after adding 10 μl of 0.005% (w/v) resazurin (Sigma Aldrich) to each well, based on the principle that living cells convert the non-fluorescent blue resazurin into the pink and fluorescent resorufin, allowing fluorimetric reading (λhd ex 550 nm and μem 590 nm) after an additional incubation period (‘resa’ time mentioned in Table 3a). [table]
# Microsporum canis B68128 = assay: Antifungal activity in vitro (resazurin susceptibility screen), Inf. B; assay type: cell-based; settings: 27 °C, 9 days, resa time 24 hours; for pIC50 Inf. B: Microsporum canis B68128; for IC50: Microsporum canis, B68128, Microsporum canis B68128
# Protocol: as §1
# [2] = test system: Trichophyton rubrum B68183; assay: Antifungal activity in vitro (resazurin susceptibility screen), Inf. C; assay type: cell-based; settings: 27 °C, 7 days, resa time 24 hours; for pIC50 Inf. C: Trichophyton rubrum B68183; for IC50: Trichophyton rubrum, B68183, Trichophyton rubrum B68183
# Protocol: as §1
# [3] = test system: Candida parapsilosis B66126; assay: Antifungal activity in vitro (resazurin susceptibility screen), Inf. D; assay type: cell-based; settings: 37 °C, 24 hours, resa time 4 hours; for pIC50 Inf. D: Candida parapsilosis B66126; for IC50: Lodderomyces parapsilosis, B66126, Candida parapsilosis B66126
# Protocol: as §1
# [4] = test system: Aspergillus fumigatus B42928; assay: Antifungal activity in vitro (resazurin susceptibility screen), Inf. E; assay type: cell-based; settings: 27 °C, 48 hours, resa time 17 hours; for pIC50 Inf. E: Aspergillus fumigatus B42928; for IC50: Aspergillus fumigatus, B42928, Aspergillus fumigatus B42928
# Protocol: as §1
# [5] = test system: Cryptococcus neoformans B66663; assay: Antifungal activity in vitro (resazurin susceptibility screen), Inf. F; assay type: cell-based; settings: 37 °C, 24 hours, resa time 4 hours; for pIC50 Inf. F: Cryptococcus neoformans B66663; for IC50: Cryptococcus neoformans, B66663, Cryptococcus neoformans B66663
# Protocol: as §1
# [6] = test system: Trichophyton mentagrophytes B70554; assay: Antifungal activity in vitro (resazurin susceptibility screen), Inf. G; assay type: cell-based; settings: 27 °C, 7 days, resa time 24 hours; for pIC50 Inf. G: Trichophyton mentagrophytes B70554; for IC50: Trichophyton mentagrophytes, B70554, Trichophyton mentagrophytes B70554
# Protocol: as §1
# [7] = test system: Scedosporium apiospermum IHEM3817; assay: Antifungal activity in vitro (resazurin susceptibility screen), Inf. H; assay type: cell-based; settings: 37 °C, 48 hours, resa time 17 hours; for IC50: Scedosporium apiospermum, IHEM3817, Scedosporium apiospermum IHEM3817
# Protocol: as §1
# [8] = test system: Rhizomucor miehei IHEM13391; assay: Antifungal activity in vitro (resazurin susceptibility screen), Inf. K; assay type: cell-based; settings: 37 °C, 48 hours, resa time 17 hours; for IC50: Rhizomucor miehei, IHEM13391, Rhizomucor miehei IHEM13391
# Protocol: as §1
# Rhizopus oryzae IHEM5223 = assay: Antifungal activity in vitro (resazurin susceptibility screen), Inf. J; assay type: cell-based; settings: Rhizopus arrhizus, 37 °C, 24 hours, resa time 6 hours
# Protocol: as §1
# [9] = test system: Mucor circinelloides IHEM21105; assay: Antifungal activity in vitro (resazurin susceptibility screen), Inf. L; assay type: cell-based; settings: 27 °C, 48 hours, resa time 17 hours
# Protocol: as §1
# [10] = test system: Scedosporium prolificans IHEM21157; assay: Antifungal activity in vitro (resazurin susceptibility screen), Inf. I; assay type: cell-based; settings: Lomentospora prolificans, 37 °C, 48 hours, resa time 17 hours
# Protocol: as §1
smiles,measurement,setting,value
"CC(F)(F)c1ccc(C2NCc3c(Cl)cccc3-n3cccc32)cc1.Cl [Compound 2, (4S)-7-chloro-4-[4-(1,1-difluoroethyl)phenyl]-5,6-dihydro-4H-pyrrolo[1,2-a][1,4]-benzodiazepine.HCl]",pIC50 Inf. A,[1],<4.19
same,pIC50 Inf. B,Microsporum canis B68128,5.09
same,pIC50 Inf. C,[2],5.82
same,pIC50 Inf. D,[3],<4.19
same,pIC50 Inf. E,[4],<4.19
same,pIC50 Inf. F,[5],<4.19
same,pIC50 Inf. G,[6],5.43
same,melting point,,206.7 to 207.6 °C
"CC(F)(F)c1ccc(C2NCc3c(Cl)cccc3-n3cccc32)cc1.Cl [Compound 3, (4R)-7-chloro-4-[4-(1,1-difluoroethyl)phenyl]-5,6-dihydro-4H-pyrrolo[1,2-a][1,4]-benzodiazepine.HCl]",pIC50 Inf. A,[1],<4.19
same,pIC50 Inf. B,Microsporum canis B68128,6.30
same,pIC50 Inf. C,[2],6.96
same,pIC50 Inf. D,[3],5.58
same,pIC50 Inf. E,[4],5.70
same,pIC50 Inf. F,[5],5.26
same,pIC50 Inf. G,[6],6.36
same,pIC50 Inf. H,[7]; Scedosporium apiospermum IHEM3817,5.13
same,pIC50 Inf. K,[8]; Rhizomucor miehei IHEM13391,4.59
same,melting point,,206.3 to 206.8 °C
"CC(F)(F)c1ccc(C2=NCc3cc(Cl)cc(Cl)c3-n3cccc32)cc1 [Compound 6, 8,10-dichloro-4-[4-(1,1-difluoroethyl)phenyl]-6H-pyrrolo[1,2-a][1,4]benzodiazepine]",IC50,[1],2630 nM
same,IC50,Microsporum canis B68128,17400 nM
same,IC50,[2],5890 nM
same,IC50,[3],> 64600 nM
same,IC50,[4],933 nM
same,IC50,[5],1410 nM
same,IC50,[6],2450 nM
same,IC50,[7],> 64600 nM
same,IC50,Rhizopus oryzae IHEM5223,> 64600 nM
same,IC50,[8],> 64600 nM
same,IC50,[9],> 64600 nM
same,melting point,,132.1 to 134.2 °C
"CC(F)(F)c1ccc(C2=NCc3c(Cl)ccc(Cl)c3-n3cccc32)cc1 [Compound 8, 7,10-dichloro-4-[4-(1,1-difluoroethyl)phenyl]-6H-pyrrolo[1,2-a][1,4]benzodiazepine]",IC50,[1],> 64600 nM
same,IC50,Microsporum canis B68128,3980 nM
same,IC50,[2],3020 nM
same,IC50,[3],> 64600 nM
same,IC50,[4],> 64600 nM
same,IC50,[5],> 64600 nM
same,IC50,[6],60300 nM
same,melting point,,162.3 to 163.5 °C
"CC(F)(F)c1ccc(C2=NCc3c(F)cccc3-n3cccc32)cc1 [Compound 15, 4-[4-(1,1-difluoroethyl)phenyl]-7-fluoro-6H-pyrrolo[1,2-a][1,4]benzodiazepine]",IC50,[1],> 64600 nM
same,IC50,Microsporum canis B68128,490 nM
same,IC50,[2],42.7 nM
same,IC50,[3],631 nM
same,IC50,[4],224 nM
same,IC50,[5],> 64600 nM
same,IC50,[6],251 nM
same,IC50,[7],> 64600 nM
same,IC50,[10],2510 nM
same,IC50,Rhizopus oryzae IHEM5223,33900 nM
same,IC50,[8],> 64600 nM
same,IC50,[9],> 64600 nM
"CC(F)(F)c1ccc(C2=NCc3c(F)cc(F)cc3-n3cccc32)cc1 [Compound 18, 4-[4-(1,1-difluoroethyl)phenyl]-7,9-difluoro-6H-pyrrolo[1,2-a][1,4]benzodiazepine]",IC50,[1],8130 nM
same,IC50,Microsporum canis B68128,2140 nM
same,IC50,[2],148 nM
same,IC50,[3],2340 nM
same,IC50,[4],501 nM
same,IC50,[5],1620 nM
same,IC50,[6],1100 nM
same,IC50,[7],> 64600 nM
same,IC50,[10],794 nM
same,IC50,Rhizopus oryzae IHEM5223,> 64600 nM
same,IC50,[8],50100 nM
same,IC50,[9],> 64600 nM
"CC(F)(F)c1cc(C2=NCc3c(F)cccc3-n3cccc32)ccc1F [Compound 20, 4-[3-(1,1-difluoroethyl)-4-fluorophenyl]-7-fluoro-6H-pyrrolo[1,2-a][1,4]benzodiazepine]",IC50,[1],> 64600 nM
same,IC50,Microsporum canis B68128,513 nM
same,IC50,[2],145 nM
same,IC50,[3],12900 nM
same,IC50,[4],112 nM
same,IC50,[5],> 64600 nM
same,IC50,[6],794 nM
same,IC50,[7],575 nM
same,IC50,[10],158 nM
same,IC50,Rhizopus oryzae IHEM5223,> 64600 nM
same,IC50,[8],26900 nM
same,IC50,[9],> 64600 nM
"CC(F)(F)c1cc(C2=NCc3c(Cl)cccc3-n3cccc32)ccc1F [Compound 21, 7-chloro-4-[3-(1,1-difluoroethyl)-4-fluorophenyl]-6H-pyrrolo[1,2-a][1,4]benzodiazepine]",IC50,[1],3720 nM
same,IC50,Microsporum canis B68128,479 nM
same,IC50,[2],195 nM
same,IC50,[3],2450 nM
same,IC50,[4],126 nM
same,IC50,[5],1580 nM
same,IC50,[6],692 nM
same,IC50,[7],89.1 nM
same,IC50,[10],50.1 nM
same,IC50,Rhizopus oryzae IHEM5223,> 64600 nM
same,IC50,[8],6610 nM
same,IC50,[9],> 64600 nM
"CC(F)(F)c1ccc(C2=NCc3ccc(Cl)c(Cl)c3-n3cccc32)cc1 [Compound 22, 9,10-dichloro-4-[4-(1,1-difluoroethyl)phenyl]-6H-pyrrolo[1,2-a][1,4]benzodiazepine]",IC50,[1],> 64600 nM
same,IC50,Microsporum canis B68128,7760 nM
same,IC50,[2],7760 nM
same,IC50,[3],> 64600 nM
same,IC50,[4],> 64600 nM
same,IC50,[5],> 64600 nM
same,IC50,[6],> 64600 nM
same,melting point,,140.9 to 142.1 °C
"CC(F)(F)c1ccc(C2NCc3c(Cl)cc(F)cc3-n3cccc32)cc1.Cl (stereo not drawn) [Compound 24, 7-chloro-4-[4-(1,1-difluoroethyl)phenyl]-9-fluoro-5,6-dihydro-4H-pyrrolo[1,2-a][1,4]-benzodiazepine.HCl]",IC50,[1],> 64600 nM
same,IC50,Microsporum canis B68128,7760 nM
same,IC50,[2],617 nM
same,IC50,[3],2630 nM
same,IC50,[4],11500 nM
same,IC50,[5],> 64600 nM
same,IC50,[6],1700 nM
same,melting point,,240 to 240.7 °C
"CC(F)(F)c1ccc(C2=NCc3c(Cl)cc(F)cc3-n3cccc32)cc1 [Compound 27, 7-chloro-4-[4-(1,1-difluoroethyl)phenyl]-9-fluoro-6H-pyrrolo[1,2-a][1,4]benzodiazepine]",IC50,[1],2450 nM
same,IC50,Microsporum canis B68128,513 nM
same,IC50,[2],288 nM
same,IC50,[3],1820 nM
same,IC50,[4],501 nM
same,IC50,[5],1020 nM
same,IC50,[6],1510 nM
same,IC50,[7],437 nM
same,IC50,[10],100 nM
same,IC50,Rhizopus oryzae IHEM5223,> 64600 nM
same,IC50,[8],8320 nM
same,IC50,[9],> 64600 nM

# Source: US9637490B2, “Antifungal 5,6-dihydro-4-[(difluoroethyl)phenyl]-4H-pyrrolo[1,2-α][1,4]benzodiazepine and 4-(difluoroethyl)phenyl-6H-pyrrolo[1,2-α][1,4]benzodiazepine derivatives” (Janssen Pharmaceutica NV, priority 2010, dated 2017)
